From PubChem BioAssay (NCI)
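Exposure lasted 48 hours, with cells grown in 96-well plates and compounds tested at five concentrations. Abbreviation: GI50, concentration required for 50% inhibition of growth. At the TGI there is no net growth.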

Experiments:
Experiment in all cases: NCI tumour cell line growth inhibition, 48 h
[1] = test system: SNB-75 CNS
[2] = test system: SF-295 CNS
[3] = test system: 786-0 renal
[4] = test system: DU-145 prostate
[5] = test system: SNB-19 CNS
[6] = test system: LOX IMVI melanoma
[7] = test system: NCI/ADR-RES ovarian
[8] = test system: HCT-116 colon
[9] = test system: SR leukemia
[10] = test system: MDA-MB-231 breast

O=C(Nc1ccc(Br)cc1)Nc1n[nH]c2ccccc12
GI50 [1]: 34.4 µM | TGI [1]: > 82.7 µM | GI50 [2]: > 100 µM | TGI [2]: > 100 µM | GI50 [3]: > 100 µM | TGI [3]: > 100 µM | GI50 [4]: > 60.2 µM | TGI [4]: > 100 µM | GI50 [5]: > 100 µM | TGI [5]: > 100 µM | GI50 [6]: > 100 µM | TGI [6]: > 100 µM | GI50 [7]: > 100 µM | TGI [7]: > 100 µM | GI50 [8]: 33.8 µM | TGI [8]: > 100 µM | GI50 [9]: 4.78 µM | TGI [9]: > 100 µM | GI50 [10]: > 50.3 µM | TGI [10]: > 100 µM

CCCCCCCCCCCCCCCC(=O)OCC(O)C1OC(=O)C(O)=C1O (stereo not drawn)
TGI [1]: 46 µM | TGI [2]: 40.4 µM | TGI [3]: 38.8 µM | TGI [4]: > 100 µM | TGI [5]: 91.4 µM | TGI [6]: 46.2 µM | TGI [7]: 79.8 µM | TGI [8]: 36.7 µM | TGI [9]: > 100 µM | TGI [10]: 54.2 µM

CN1C(=O)CNC(=O)[C@H](NC(=O)c2nc3ccccc3cc2O)CSSC[C@H]1C(=O)NCCc1nc2ccccc2cc1O
GI50 [1]: 15 µM | TGI [1]: 33.9 µM | GI50 [2]: 14.3 µM | TGI [2]: > 100 µM | GI50 [3]: 22.1 µM | TGI [3]: 49 µM | GI50 [4]: 5.19 µM | TGI [4]: 23.2 µM | GI50 [5]: 33.5 µM | TGI [5]: > 100 µM | GI50 [6]: 0.442 µM | TGI [6]: 6.77 µM | GI50 [7]: > 88.5 µM | TGI [7]: > 100 µM | GI50 [8]: 2.05 µM | TGI [8]: 57.6 µM | GI50 [9]: 0.387 µM | TGI [9]: 1.96 µM | GI50 [10]: 5.42 µM | TGI [10]: 27.7 µM

CN(C)CCNc1ccc([N+](=O)[O-])c2nc3ccccc3c(N)c12
TGI [1]: 3.96 µM | TGI [2]: 8.1 µM | TGI [3]: > 10 µM | TGI [4]: > 10 µM | TGI [5]: > 10 µM | TGI [6]: 2.11 µM | TGI [7]: 2.45 µM | TGI [8]: 1.91 µM | TGI [9]: 1.73 µM | TGI [10]: 6.89 µM

CCCCC(=O)N/N=C/c1cc(I)cc(I)c1O
GI50 [1]: 6.03 µM | TGI [1]: 26.5 µM | GI50 [2]: 2.45 µM | TGI [2]: 12.9 µM | GI50 [3]: 3.39 µM | TGI [3]: 20.6 µM | GI50 [4]: 4.24 µM | TGI [4]: 31 µM | GI50 [5]: 3.43 µM | TGI [5]: 35.6 µM | GI50 [6]: 2.62 µM | TGI [6]: 13.4 µM | GI50 [7]: 2.58 µM | TGI [7]: 20.1 µM | GI50 [8]: 3.63 µM | TGI [8]: 21.9 µM | GI50 [9]: 1.92 µM | TGI [9]: 14.3 µM | GI50 [10]: 2.73 µM | TGI [10]: 29.9 µM

O=C(COc1cccc(/C=C2\COc3ccccc3C2=O)c1)Nc1nccs1
GI50 [1]: 12.2 µM | TGI [1]: 24.6 µM | GI50 [2]: 1.73 µM | TGI [2]: 3.26 µM | GI50 [3]: 2.05 µM | TGI [3]: 4.14 µM | GI50 [4]: 1.96 µM | TGI [4]: 3.37 µM | GI50 [5]: 9.93 µM | TGI [5]: 22.1 µM | GI50 [6]: 1.82 µM | TGI [6]: 3.4 µM | GI50 [7]: 4.97 µM | TGI [7]: 21.8 µM | GI50 [8]: 1.76 µM | TGI [8]: 3.15 µM | GI50 [9]: 1.03 µM | TGI [9]: 2.76 µM | GI50 [10]: 3.55 µM | TGI [10]: 17 µM

CC1(C)N=C(N)N=C(N)N1c1ccc(F)c(C(F)(F)F)c1
TGI [1]: > 100 µM | GI50 [2]: 0.408 µM | GI50 [3]: 0.543 µM | TGI [3]: > 100 µM | GI50 [4]: 3.18 µM | TGI [4]: > 100 µM | GI50 [5]: 4.47 µM | TGI [5]: > 100 µM | GI50 [6]: 0.4 µM | TGI [6]: > 100 µM | GI50 [7]: > 83.6 µM | TGI [7]: > 100 µM | GI50 [8]: 0.172 µM | TGI [8]: > 100 µM | GI50 [9]: 0.444 µM | TGI [9]: > 100 µM | GI50 [10]: > 100 µM | TGI [10]: > 100 µM

Cn1c(COC(=O)N2CCCCC2)nc2c(N3CCOCC3)nc(-c3ccccc3)nc21
GI50 [1]: 0.817 µM | TGI [1]: 2.18 µM | GI50 [2]: 1.58 µM | TGI [2]: 2.97 µM | GI50 [3]: 0.732 µM | TGI [3]: 2 µM | GI50 [4]: 1.01 µM | TGI [4]: 2.31 µM | GI50 [5]: 1.51 µM | TGI [5]: 2.86 µM | GI50 [6]: 0.166 µM | TGI [6]: 0.337 µM | GI50 [7]: 1.67 µM | TGI [7]: 5.72 µM | GI50 [8]: 0.173 µM | TGI [8]: 0.471 µM | GI50 [9]: 0.287 µM | TGI [9]: 2.34 µM | GI50 [10]: 1.02 µM | TGI [10]: 2.27 µM

CCC[C@H](N[C@@H]1CCc2cc(F)cc(F)c2C1)C(=O)Nc1cn(C(C)(C)CNCC(C)(C)C)cn1
GI50 [1]: 3.68 µM | TGI [1]: 64.8 µM | GI50 [2]: 15.4 µM | TGI [2]: 42.5 µM | GI50 [3]: 13.5 µM | TGI [3]: 54.2 µM | GI50 [4]: 29.7 µM | TGI [4]: > 100 µM | GI50 [5]: 26.6 µM | TGI [5]: > 94.6 µM | GI50 [6]: 15.5 µM | TGI [6]: 30.6 µM | GI50 [7]: 15.3 µM | TGI [7]: > 81 µM | GI50 [8]: 5.31 µM | TGI [8]: 20.2 µM | GI50 [9]: 14.2 µM | TGI [9]: > 79 µM | GI50 [10]: 10.2 µM | TGI [10]: 29.3 µM

C#C[C@]1(O)CC[C@H]2[C@@H]3CC=C4c5sc(N=C(N)N)nc5CC[C@]4(C)[C@H]3CC[C@@]21C
GI50 [1]: 0.152 µM | TGI [1]: 1.32 µM | GI50 [2]: 0.188 µM | TGI [2]: 0.452 µM | GI50 [3]: 0.453 µM | TGI [3]: 1.81 µM | GI50 [4]: 1.19 µM | TGI [4]: 2.67 µM | GI50 [5]: 1.11 µM | TGI [5]: 2.41 µM | GI50 [6]: 0.443 µM | TGI [6]: 1.63 µM | GI50 [7]: 1.44 µM | TGI [7]: 3.59 µM | GI50 [8]: 0.989 µM | TGI [8]: 2.29 µM | GI50 [9]: 0.348 µM | TGI [9]: 1.98 µM | GI50 [10]: 1.14 µM | TGI [10]: 2.66 µM

C(=C1c2ccccc2-c2ccccc21)c1ccccn1
GI50 [1]: 16 µM | TGI [1]: > 100 µM | GI50 [2]: 1.57 µM | TGI [2]: 5.97 µM | GI50 [3]: 14.7 µM | TGI [3]: 29.8 µM | GI50 [4]: 16.1 µM | TGI [4]: 44.9 µM | GI50 [5]: 14 µM | TGI [5]: > 100 µM | GI50 [6]: 8.52 µM | TGI [6]: 25.8 µM | GI50 [7]: 3.86 µM | TGI [7]: 31 µM | GI50 [8]: 5.07 µM | TGI [8]: 24.6 µM | GI50 [9]: 3.76 µM | TGI [9]: 38.3 µM | GI50 [10]: 12.3 µM | TGI [10]: 39.8 µM

O=S1(=O)CCN(Cc2ccccn2)CC1
TGI [1]: > 100 µM | TGI [2]: > 100 µM | TGI [3]: > 100 µM | TGI [4]: > 100 µM | TGI [5]: > 100 µM | TGI [6]: > 100 µM | TGI [7]: > 100 µM | TGI [8]: > 100 µM | TGI [9]: > 100 µM | TGI [10]: > 100 µM

Nc1cc(-c2ccccc2)ccc1O
GI50 [1]: > 100 µM | TGI [1]: > 100 µM | GI50 [2]: 55.2 µM | TGI [2]: > 100 µM | GI50 [3]: > 100 µM | TGI [3]: > 100 µM | GI50 [4]: 82.3 µM | TGI [4]: > 100 µM | GI50 [5]: > 100 µM | TGI [5]: > 100 µM | GI50 [6]: 62.9 µM | TGI [6]: > 100 µM | GI50 [7]: 45 µM | TGI [7]: > 100 µM | GI50 [8]: 54.6 µM | TGI [8]: > 100 µM | GI50 [9]: 33.9 µM | TGI [9]: > 100 µM | GI50 [10]: 7.32 µM | TGI [10]: > 100 µM
